Source: patent US11136301B2, “Broad spectrum antiviral compounds and uses thereof” (The Regents Of The University Of California, priority 2015, dated 2021)
Like-named read-outs stand apart in the source and are kept apart here.

System: wild-type HIV-1 (HIV-1LAI) in H9 cells (non-permissive)
Experiment: microbe, parasite or virus in culture
Assay type: cell-based
[1] = Human immunodeficiency virus 1, H9, read-out: Antiviral activity (IC50 μM) H9 cells, Table 5, wild-type HIV-1, non-permissive H9 cells
[2] = Human immunodeficiency virus 1, H9, read-out: Antiviral activity (IC50 μM) H9 cells, Table 8, wild-type HIV-1, non-permissive H9 cells
[3] = Human immunodeficiency virus 1, H9, read-out: Antiviral activity (IC50 μM) H9 cells, wild-type HIV-1 (HIV-1LAI), H9 cells (non-permissive), RT activity in culture supernatants, compounds 1 to 50 μM
[4] = read-out: Antiviral activity (IC50 μM) H9 cells, Table 5, wild-type HIV-1, non-permissive H9 cells
[5] = read-out: Antiviral activity (IC50 μM) H9 cells, Table 8, wild-type HIV-1, non-permissive H9 cells
[6] = read-out: Antiviral activity (IC50 μM) H9 cells, wild-type HIV-1 (HIV-1LAI), H9 cells (non-permissive), RT activity in culture supernatants, compounds 1 to 50 μM
[7] = Human immunodeficiency virus 1, H9, read-out: Antiviral activity (IC50 μM) H9 Cells, Table 4, wild-type HIV-1, non-permissive H9 cells
[8] = Human immunodeficiency virus 1, H9, read-out: Antiviral activity (IC50 μM) H9 Cells, Table 7, wild-type HIV-1, non-permissive H9 cells
[9] = read-out: Antiviral activity (IC50 μM) H9, Table 2, wild-type HIV-1, non-permissive H9 cells

SMILES	IC50 [1]	IC50 [2]	IC50 [3]	further results
COC(=O)c1ccc(S(=O)(=O)c2ccccc2-c2cn(-c3c(F)cccc3OC)nn2)cc1 [Compound 7by, Methyl 4-((2-(1-(2-fluoro-6-methoxyphenyl)-1H-1,2,3-triazol-4-yl)phenyl)sulfonyl)benzoate]	> 50 µM	> 50 µM	> 50 µM	–
COc1ccc(Sc2ccccc2-c2cn(-c3c(OC)cccc3OC)nn2)cc1 [Compound 6cx, 1-(2,6-Dimethoxyphenyl)-4-(2-((4-methoxyphenyl)thio)phenyl)-1H-1,2,3-triazole]	> 50 µM	> 50 µM	> 50 µM	–
COc1ccc(-n2cc(-c3ccccc3Sc3ccc(C(=O)O)cc3)nn2)c(OC)c1 [Compound 4gx, 2-Hydroxy-N,N,N-trimethylethanaminium 4-((2-(1-(2,4-dimethoxyphenyl)-1H-1,2,3-triazol-4-yl)phenyl)thio)benzoate]	–	–	–	IC50 [4]: > 50 µM; IC50 [5]: > 50 µM; IC50 [6]: > 50 µM
COc1cccc(OC)c1-n1cc(-c2ccccc2Sc2ccc(C(F)(F)F)cc2)nn1 [Compound 6dx, 1-(2,6-Dimethoxyphenyl)-4-(2-((4-(trifluoromethyl)phenyl)thio)phenyl)-1H-1,2,3-triazole]	5.3 µM	5.3 µM	5.3 µM	–
COc1ccc(-n2cc(-c3ccccc3S(=O)(=O)c3ccc(C(=O)O)cc3)nn2)c(OC)c1 [Compound 4fy, 4-((2-(1-(2,4-Dimethoxyphenyl)-1H-1,2,3-triazol-4-yl)phenyl)sulfonyl)benzoic Acid]	> 50 µM	> 50 µM	> 50 µM	–
COc1cccc(F)c1-n1cc(-c2ccccc2Sc2ccc(C(F)(F)F)cc2)nn1 [Compound 7dx, 1-(2-Fluoro-6-methoxyphenyl)-4-(2-((4-(trifluoromethyl)phenyl)thio)phenyl)-1H-1,2,3-triazole]	10 µM	10 µM	10 µM	–
COc1ccc(OC)c(-n2cc(-c3ccccc3S(=O)(=O)c3ccc(C(F)(F)F)cc3)nn2)c1 [Compound 5dy, 1-(2,5-Dimethoxyphenyl)-4-(2-((4-(trifluoromethyl)phenyl)sulfonyl)phenyl)-1H-1,2,3-triazole]	4.3 µM	4.3 µM	4.3 µM	–
COC(=O)c1ccc(S(=O)(=O)c2ccccc2-c2cn(-c3ccc(OC)cc3OC)nn2)cc1 [Compound 4by, Methyl 4-((2-(1-(2,4-dimethoxyphenyl)-1H-1,2,3-triazol-4-yl)phenyl)sulfonyl)benzoate]	7.6 µM	7.6 µM	7.6 µM	–
COc1cccc(OC)c1-n1cc(-c2ccccc2S(=O)(=O)c2ccc(C(F)(F)F)cc2)nn1 [Compound 6dy, 1-(2,6-Dimethoxyphenyl)-4-(2-((4-(trifluoromethyl)phenyl)sulfonyl)phenyl)-1H-1,2,3-triazole]	> 50 µM	> 50 µM	> 50 µM	–
COc1cccc(OC)c1-n1cc(-c2ccccc2Sc2ccc(N)cc2)nn1 [Compound 6ex, 4-((2-(1-(2,6-Dimethoxyphenyl)-1H-1,2,3-triazol-4-yl)phenyl)thio)amine]	1.5 µM	1.5 µM	1.5 µM	IC50 [7]: 1.5 µM; IC50 [8]: 1.5 µM; IC50 (Human immunodeficiency virus 1, H9, read-out: IC50, anti-HIV-1 activity, non-permissive H9 cells): 1 to 3 µM
COc1ccc(-n2cc(-c3ccccc3S(=O)(=O)c3ccc(N)cc3)nn2)c(OC)c1 [Compound 4ey, 4-((2-(1-(2,4-Dimethoxyphenyl)-1H-1,2,3-triazol-4-yl)phenyl)sulfonyl)aniline]	> 50 µM	> 50 µM	> 50 µM	–
COc1ccc(-n2cc(-c3ccccc3Sc3ccc(C(F)(F)F)cc3)nn2)c(OC)c1 [Compound 4dx, 1-(2,4-Dimethoxyphenyl)-4-(2-((4-(trifluoromethyl)phenyl)thio)phenyl)-1H-1,2,3-triazole]	1.1 µM	1.1 µM	1.1 µM	–
COc1cccc(F)c1-n1cc(-c2ccccc2Sc2ccc(C(=O)O)cc2)nn1 [Compound 7gx, 2-Hydroxy-N,N,N-trimethylethanaminium 4-((2-(1-(2-fluoro-6-methoxyphenyl)-1H-1,2,3-triazol-4-yl)phenyl)thio)benzoate]	–	–	–	IC50 [4]: > 50 µM; IC50 [5]: > 50 µM; IC50 [6]: > 50 µM
COc1cccc(-n2cc(-c3ccccc3S(=O)(=O)c3ccc(C(=O)O)cc3)nn2)c1OC [Compound 3gy, 2-Hydroxy-N,N,N-trimethylethanaminium 4-((2-(1-(2,3-dimethoxyphenyl)-1H-1,2,3-triazol-4-yl)phenyl)sulfonyl)benzoate]	–	–	–	IC50 [9]: > 50 µM; IC50 [4]: > 50 µM; IC50 [5]: > 50 µM; IC50 [6]: > 50 µM
COc1cccc(OC)c1-n1cc(-c2ccccc2S(=O)(=O)c2ccc(C(=O)O)cc2)nn1 [Compound 6gy, 2-Hydroxy-N,N,N-trimethylethanaminium 4-((2-(1-(2,6-dimethoxyphenyl)-1H-1,2,3-triazol-4-yl)phenyl)sulfonyl)benzoate]	–	–	–	IC50 [9]: > 50 µM; IC50 [4]: > 50 µM; IC50 [5]: > 50 µM; IC50 [6]: > 50 µM
COc1cccc(-n2cc(-c3ccccc3Sc3ccc(N)cc3)nn2)c1OC [Compound 3ex, 4-((2-(1-(2,3-Dimethoxyphenyl)-1H-1,2,3-triazol-4-yl)phenyl)thio)aniline]	5 µM	5 µM	5 µM	–
COc1ccc(-n2cc(-c3ccccc3Sc3ccc(N)cc3)nn2)c(OC)c1 [Compound 4ex, 4-((2-(1-(2,4-Dimethoxyphenyl)-1H-1,2,3-triazol-4-yl)phenyl)thio)aniline]	> 50 µM	> 50 µM	> 50 µM	–
COc1ccc(OC)c(-n2cc(-c3ccccc3Sc3ccc(C(=O)O)cc3)nn2)c1 [Compound 5gx, 2-Hydroxy-N,N,N-trimethylethanaminium 4-((2-(1-(2,5-dimethoxyphenyl)-1H-1,2,3-triazol-4-yl)phenyl)thio)benzoate]	–	–	–	IC50 [4]: > 50 µM; IC50 [5]: > 50 µM; IC50 [6]: > 50 µM
COc1ccc(Sc2ccccc2-c2cn(-c3ccccc3OC)nn2)cc1 [Compound 2cx, 1-(2-Methoxyphenyl)-4-(2-((4-methoxyphenyl)thio)phenyl)-1H-1,2,3-triazole]	13.6 µM	13.6 µM	13.6 µM	–
COc1cccc(OC)c1-n1cc(-c2ccccc2Sc2ccc([N+](=O)[O-])cc2)nn1 [Compound 6ax, 1-(2,6-Dimethoxyphenyl)-4-(2-((4-nitrophenyl)thio)phenyl)-1H-1,2,3-triazole]	6.3 µM	6.3 µM	6.3 µM	–
COc1ccc(Sc2ccccc2-c2cn(-c3ccc(OC)cc3OC)nn2)cc1 [Compound 4cx, 1-(2,4-Dimethoxyphenyl)-4-(2-((4-methoxyphenyl)thio)phenyl)-1H-1,2,3-triazole]	> 50 µM	> 50 µM	> 50 µM	–
COc1cccc(OC)c1-n1cc(-c2ccccc2Sc2ccc(C(=O)O)cc2)nn1 [Compound 6gx, 2-Hydroxy-N,N,N-trimethylethanaminium 4-((2-(1-(2,6-dimethoxyphenyl)-1H-1,2,3-triazol-4-yl)phenyl)thio)benzoate]	–	–	–	IC50 [9]: 52 µM; IC50 [4]: 52 µM; IC50 [5]: 52 µM; IC50 [6]: 52 µM
COc1ccc(-n2cc(-c3ccccc3Sc3ccc([N+](=O)[O-])cc3)nn2)c(OC)c1 [Compound 4ax, 1-(2,4-Dimethoxyphenyl)-4-(2-((4-nitrophenyl)thio)phenyl)-1H-1,2,3-triazole]	> 50 µM	> 50 µM	> 50 µM	–
COc1ccc(Sc2ccccc2-c2cn(-c3cccc(OC)c3OC)nn2)cc1 [Compound 3cx, 1-(2,3-Dimethoxyphenyl)-4-(2-((4-methoxyphenyl)thio)phenyl)-1H-1,2,3-triazole]	4.7 µM	4.7 µM	4.7 µM	IC50 [7]: 4.7 µM; IC50 [8]: 4.7 µM
COc1ccccc1-n1cc(-c2ccccc2Sc2ccc(C(=O)O)cc2)nn1 [Compound 2gx, 2-Hydroxy-N,N,N-trimethylethanaminium 4-((2-(1-(2-methoxyphenyl)-1H-1,2,3-triazol-4-yl)phenyl)thio)benzoate]	–	–	–	IC50 [9]: > 50 µM; IC50 [4]: > 50 µM; IC50 [5]: > 50 µM; IC50 [6]: > 50 µM
COc1cccc(-n2cc(-c3ccccc3Sc3ccc(C(=O)O)cc3)nn2)c1OC [Compound 3gx, 2-Hydroxy-N,N,N-trimethylethanaminium 4-((2-(1-(2,3-dimethoxyphenyl)-1H-1,2,3-triazol-4-yl)phenyl)thio)benzoate]	–	–	–	IC50 [9]: 4.3 µM; IC50 (read-out: Antiviral activity (IC50 μM) H9 Cells, Table 4, wild-type HIV-1, non-permissive H9 cells): 4.3 µM; IC50 (read-out: Antiviral activity (IC50 μM) H9 Cells, Table 7, wild-type HIV-1, non-permissive H9 cells): 4.3 µM; IC50 [4]: 4.3 µM; IC50 [5]: 4.3 µM; IC50 [6]: 4.3 µM
COc1ccc(Sc2ccccc2-c2cn(-c3c(F)cccc3OC)nn2)cc1 [Compound 7cx, 1-(2-Fluoro-6-methoxyphenyl)-4-(2-((4-methoxyphenyl)thio)phenyl)-1H-1,2,3-triazole]	> 50 µM	> 50 µM	> 50 µM	–
